We go through ten compounds from US20150315188A1, “COMPOUNDS AND METHODS FOR TREATMENT OF HYPERTENSION” (MEDIVATION TECHNOLOGIES, INC., priority 2012, published 2015).

The structures appear in SMILES notation.

The target of assay [1] is T1, Human adrenergic α2A receptor (Homo sapiens, UniProt P08913).
T1 sequence (P08913 1-465): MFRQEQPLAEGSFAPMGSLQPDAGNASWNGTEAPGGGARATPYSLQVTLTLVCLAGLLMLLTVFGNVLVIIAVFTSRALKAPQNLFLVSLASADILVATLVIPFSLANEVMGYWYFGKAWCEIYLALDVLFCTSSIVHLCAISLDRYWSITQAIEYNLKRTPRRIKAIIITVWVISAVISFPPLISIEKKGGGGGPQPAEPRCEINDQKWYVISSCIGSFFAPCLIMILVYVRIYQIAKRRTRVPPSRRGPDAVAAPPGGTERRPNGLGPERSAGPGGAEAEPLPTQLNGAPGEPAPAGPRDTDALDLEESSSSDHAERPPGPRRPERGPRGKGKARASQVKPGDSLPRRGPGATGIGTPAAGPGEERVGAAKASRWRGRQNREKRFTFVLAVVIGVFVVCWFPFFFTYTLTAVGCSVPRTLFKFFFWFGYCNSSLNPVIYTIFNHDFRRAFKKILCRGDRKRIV
Briefly: β-Arrestin GPCR functional assay, adrenergic α2A (Protocol B). Type of assay: cell-based. Conditions: for IC50: β-arrestin, antagonist vs nor-epinephrine EC80; for Percentage inhibition, Adrenergic α2A / inhibition at 0.1 µM / inhibition at 0.3 µM: nor-epinephrine at EC80 (270 nM); for inhibition at 0.1 µM / inhibition at 0.3 µM: read-out: Percentage inhibition, Adrenergic α2A. How it is done: To evaluate the activity of compounds in β-Arrestin GPCR functional assays, recombinant CHO cell line (DiscoveRX), over expressed with human adrenergic α2A receptor were used. The experiment was done with kit of DiscoveRX as per recommended protocol of the supplier. Cells were harvested from culture flask using cell dissociation solution (CDS) and plated at a density of 12,000 cells/well in CP reagent (supplied with the kit) in a half area 96-well white polystyrene plate. After 24 h incubation at 37° C., compounds at various concentrations in 1% (final) DMSO were charged to the cells for 30 min at 37° C. Active nor-epinephrine (-NE) at its EC80 concentrations (270 nM) were then added to the cells and incubated for another 90 min at 37° C. Detection mix was prepared by mixing of Path Hunter cell assay buffer, Emerald II solution and Galactone star solution in a ratio of 19:5:1 and incubated with the cells for 60 min at RT in the dark. The reading was taken in Envision at luminescence mode. Biochemical assay results are presented as the percent Inhibition in Table B2a, or IC50 values in Table B2b.

Assay [2] addresses T1, Human adrenergic α2A receptor. Description: Radioligand binding, adrenergic α2A (Protocol Group B). Conditions: for Percentage inhibition of ligand binding, Adrenergic α2A (0.1 μM) / inhibition at 0.1 µM: 0.1 μM compound; for Percentage inhibition of ligand binding, Adrenergic α2A (0.1 μM) / Percentage inhibition of ligand binding, Adrenergic α2A (0.3 μM) / Ki / inhibition at 0.1 µM / inhibition at 0.3 µM: Protocol Group B; for Percentage inhibition of ligand binding, Adrenergic α2A (0.3 μM) / inhibition at 0.3 µM: 0.3 μM compound; for Ki: estimated Ki; for inhibition at 0.1 µM: read-out: Percentage inhibition of ligand binding, Adrenergic α2A (0.1 μM); for inhibition at 0.3 µM: read-out: Percentage inhibition of ligand binding, Adrenergic α2A (0.3 μM); for inhibition at 1 µM: 1 μM compound, read-out: Percentage inhibition of ligand binding, Adrenergic α2A, 1 μM; for inhibition at 3.2 µM: 3.2 μM compound, read-out: Percentage inhibition of ligand binding, Adrenergic α2A, 3.2 μM. Set-up: purchased Milipore (Millipore). In a few lines: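 Membranes from recombinant cells expressing the receptor, in 50 mM Tris-HCl pH 7.4 with 5 mM MgCl2, 1 mM CaCl2, 0.2% BSA; compounds incubated with 2 nM [^3H]MK-912 for 60 min at 25° C. Nonspecific binding defined by 10 μM rauwolscine; filtration, counting; percent inhibition of specific binding, or estimated Ki.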

For the compound `CC(O)(Cn1c2c(c3cc(Cl)cc(F)c31)C1CCCN1CC2)c1ccncc1` (single isomer, unassigned) [52b], the half-inhibitory concentration (IC50) in assay [1] was found to be 0.992 µM. In assay [2], the “Percentage inhibition of ligand binding, Adrenergic α2A (0.1 μM)” value (“Percentage inhibition … (0.1 μM)” below) worked out at 72%; the “Percentage inhibition of ligand binding, Adrenergic α2A (0.3 μM)” value (“Percentage inhibition … (0.3 μM)” below) was 78%; the inhibition constant Ki is 0.0217 µM.
Turning to `Cc1cc(F)c2c(c1)c1c(n2CC(C)(O)c2ccncc2)CCN2CCCC12` (single isomer, unassigned) [81a], it took 1.25 µM to reach half-maximal inhibition in assay [1] (IC50). Besides, in assay [2], the inhibition at 0.1 µM was 71%, the inhibition at 0.3 µM was 90% and the inhibition constant Ki is 0.0196 µM.
Turning to `Cc1ccc2c(c1)c1c(n2CC(C)(O)c2ccncc2)CCN2CCCC12` (single isomer, unassigned) [13b], the “Percentage inhibition, Adrenergic α2A” value came to 23% in assay [1] (0.1 μM compound) and 30% in assay [1] (0.3 μM compound). This compound yielded an IC50 in assay [1] of 0.806 µM. For the same compound, the Ki in assay [2] is 0.013 µM.
Consider `Cc1ccc2c(c1)c1c(n2CC(O)c2ccncc2F)CCN2CCCC12` (single isomer, unassigned) [14a], for which the “Percentage inhibition, Adrenergic α2A” value in assay [1] (0.1 μM compound) was −1%. Moreover, in assay [1] (0.3 μM compound), the “Percentage inhibition, Adrenergic α2A” value is listed as −2%. For the same compound, in assay [2], the “Percentage inhibition … (0.3 μM)” value came to 39% and the Ki was 0.305 µM.
Consider `OC(Cn1c2c(c3cc(F)ccc31)C1CCCN1CC2)c1ccncc1` (single isomer, unassigned) [18b], for which the inhibition at 0.1 µM in assay [1] (0.1 μM compound) stood at 14%. Moreover, the inhibition at 0.3 µM in assay [1] (0.3 μM compound) was determined as 18%. For the same compound, 2.78 µM corresponded to half-maximal inhibition in assay [1] (IC50). The inhibition at 0.0032 µM in assay [2] (3.2 nM compound, concentration series, read-out: Percentage inhibition of ligand binding, Adrenergic α2A, 3.2 nM) is 8%. Also, in assay [2] (10 nM compound, concentration series, read-out: Percentage inhibition of ligand binding, Adrenergic α2A, 10 nM), the inhibition at 0.01 µM was 12%. For the same compound, the inhibition at 0.03 µM in assay [2] (0.03 μM compound, concentration series, read-out: Percentage inhibition of ligand binding, Adrenergic α2A, 0.03 μM) was determined as 27%. In assay [2], the inhibition at 0.1 µM is 45%, the inhibition at 0.3 µM turned out to be 71% and the Ki is 0.0559 µM. The inhibition at 0.32 µM in assay [2] (0.32 μM compound, concentration series, read-out: Percentage inhibition of ligand binding, Adrenergic α2A, 0.32 μM) stood at 76%. Moreover, in assay [2] (concentration series), the inhibition at 1 µM was 90% and the inhibition at 3.2 µM was determined as 96%. In addition, in assay [2] (10 μM compound, concentration series, read-out: Percentage inhibition of ligand binding, Adrenergic α2A, 10 μM), the inhibition at 10 µM came out at 99%.
As to `Cc1cc(C)c2c(c1)c1c(n2CC(C)(O)c2ccncc2)CCN2CCCC12` (single isomer, unassigned) [19a], the inhibition at 0.1 µM in assay [1] (0.1 μM compound) stood at 13%. The inhibition at 0.3 µM in assay [1] (0.3 μM compound) worked out at 23%. Besides, the concentration for half-maximal inhibition (IC50) in assay [1] was found to be 1.26 µM. In addition, in assay [2] (1 nM compound, concentration series, read-out: Percentage inhibition of ligand binding, Adrenergic α2A, 1 nM), the inhibition at 0.001 µM was determined as 3%. For the same compound, the “Percentage inhibition of ligand binding, Adrenergic α2A, 3.2 nM” value in assay [2] (3.2 nM compound, concentration series, 0.0032 µM) is on record as 0%. Moreover, the “Percentage inhibition of ligand binding, Adrenergic α2A, 10 nM” value in assay [2] (10 nM compound, concentration series, 0.01 µM) was determined as 22%. Further, the “Percentage inhibition of ligand binding, Adrenergic α2A, 0.032 μM” value in assay [2] (0.032 μM compound, concentration series, 0.032 µM) stood at 49%. For the same compound, in assay [2], the “Percentage inhibition … (0.1 μM)” value was found to be 72%; the inhibition at 0.3 µM stood at 87%; the inhibitory constant (Ki) is 0.0162 µM. The “Percentage inhibition of ligand binding, Adrenergic α2A, 0.32 μM” value in assay [2] (0.32 μM compound, concentration series, 0.32 µM) was 92%. For the same compound, in assay [2] (concentration series), the inhibition at 1 µM amounted to 98% and the inhibition at 3.2 µM worked out at 100%.
In turn, `CC(O)(Cn1c2c(c3cc(F)ccc31)C1CCCN1CC2)c1ccncc1` (single isomer, unassigned) [31b] returned an IC50 in assay [1] of 11.3 µM. Further, in assay [2], the “Percentage inhibition … (0.1 μM)” value came to 26%; the “Percentage inhibition … (0.3 μM)” value is 38%; the Ki was 0.362 µM.
On the same counts, the results for `OC(Cn1c2c(c3cc(Cl)cc(F)c31)C1CCCN1CC2)c1ccncc1` (single isomer, unassigned) [135b] are 0.295 µM, 79%, 84% and 0.0031 µM.
Taken in the same sequence, the figures for `CCCOC(Cn1c2c(c3cc(C)ccc31)CN(C)CC2)c1ccncc1` (single isomer, unassigned) [42b] were 5.22 µM, 32%, 48% and 0.154 µM.
For the compound `Cc1cc(Cl)c2c(c1)c1c(n2CC(C)(O)c2ccncc2)CCN2CCCC12` (single isomer, unassigned) [91a], the 50% inhibitory concentration (IC50) in assay [1] was determined as 0.865 µM. Moreover, in assay [2], the inhibition at 0.1 µM came to 81%, the inhibition at 0.3 µM amounted to 91% and the Ki is 0.0088 µM.

What is called IC50 is the concentration that inhibits the measured activity by half. A higher IC50 goes with lower potency. One may read the Ki as the dissociation constant of the complex between target and ligand, obtained from inhibition or displacement. Usually inhibition stands for the change of the read-out against control, counted positive when it falls.
